Results reported in patent US6706663B2, “Herbicidal 3-heterocyclic substituted benzisothiazole and benzisoxazole compounds” (Wyeth, priority 2000, dated 2004).

What was measured:
[1] = test system: AMBEL (Ambrosia artemisifolia); assay: Postemergence herbicidal evaluation; type: in vivo, L.; settings: postemergence
How it was run: (§1)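 Seedlings grown about two weeks in flats, sprayed, then kept under standard greenhouse care. Rated visually 4–5 weeks after treatment on a 0–9 scale (stand, vigour, malformation, size, chlorosis, overall appearance) relative to untreated control; repeat tests averaged.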

[2] = test system: CASOB (Cassia obtusifolia); assay: Postemergence herbicidal evaluation; type: in vivo, L.; settings: postemergence
How it was run: as §1

[3] = test system: CHEAL (Chenopodium album); assay: Postemergence herbicidal evaluation; type: in vivo, L.; settings: postemergence
How it was run: as §1

ORYSAT (Rice, Tebonnet) = assay: Flooded paddy, post-transplant rice tolerance; type: in vivo, Oryza sativa, (L.) Tebonnet; settings: flooded paddy, post-transplant rice, rated 3-4 weeks after treatment, 0-9 rating scale
How it was run: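 Steps: transplant two ten-day-old seedlings into silt loam; flood to 1.5-3 cm above soil; apply herbicide post-transplant; maintain water on greenhouse benches; rate stand, vigor, malformation, size and chlorosis on a 0-9 visual scale versus control.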

[4] = test system: GLXMAW (Soybean, Williams); assay: Preemergence herbicidal evaluation; type: in vivo, Glycine max, (L.) Merr. cv Williams; settings: rated 4-5 weeks after treatment
CYPIR (Cyperus iria) = assay: Flooded paddy, preemergence weed control; type: in vivo; settings: rated 3-4 weeks after treatment, 0-9 rating scale
How it was run: (§2)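 Greenhouse paddy test, preemergence. Seeds planted in the top 0.5 cm of silt loam soil, which remained flooded at 1.5–3 cm depth. Scored 0-9 by visual comparison with control.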

[5] = test system: IPOHE (Ipomoea hederacea); assay: Preemergence herbicidal evaluation; type: in vivo, (L.) Jacq.; settings: rated 4-5 weeks after treatment
[6] = test system: ABUTH (Abutilon theophrasti); assay: Postemergence herbicidal evaluation; type: in vivo, Medic.; settings: postemergence
How it was run: as §1

GALAP (Galium aparine) = assay: Postemergence herbicidal evaluation; type: in vivo; settings: postemergence
How it was run: as §1

ZEAMX (Corn, Field) = assay: Preemergence herbicidal evaluation; type: in vivo, Zea mays, L.; settings: rated 4-5 weeks after treatment
[7] = test system: SAGPY (Sagittaria pygmaea); assay: Flooded paddy, preemergence weed control; type: in vivo, L.; settings: rated 3-4 weeks after treatment, 0-9 rating scale
How it was run: as §2

Compound | AMBEL herbicidal rating ([1]; rate 0.0320 kg/ha) | AMBEL herbicidal rating ([1]; rate 0.0620 kg/ha) | CASOB herbicidal rating ([2]; rate 0.0320 kg/ha) | CASOB herbicidal rating ([2]; rate 0.0620 kg/ha) | CHEAL herbicidal rating ([3]; rate 0.0320 kg/ha) | CHEAL herbicidal rating ([3]; rate 0.0620 kg/ha) | herbicidal rating, ORYSAT (rice tolerance) (ORYSAT (Rice, Tebonnet); rate 0.0080 kg/ha) | herbicidal rating, ORYSAT (rice tolerance) (ORYSAT (Rice, Tebonnet); rate 0.0320 kg/ha) | herbicidal rating, ORYSAT (rice tolerance) (ORYSAT (Rice, Tebonnet); rate 0.1250 kg/ha) | Preemergence herbicidal rating GLXMAW ([4]; Rate 0.0620 kg/ha) | Preemergence herbicidal rating GLXMAW ([4]; Rate 0.1250 kg/ha) | Preemergence herbicidal rating GLXMAW ([4]; Rate 0.2500 kg/ha) | herbicidal rating, CYPIR (CYPIR (Cyperus iria); rate 0.0080 kg/ha) | herbicidal rating, CYPIR (CYPIR (Cyperus iria); rate 0.0320 kg/ha) | herbicidal rating, CYPIR (CYPIR (Cyperus iria); rate 0.1250 kg/ha) | Preemergence herbicidal rating IPOHE ([5]; Rate 0.0620 kg/ha) | Preemergence herbicidal rating IPOHE ([5]; Rate 0.1250 kg/ha) | Preemergence herbicidal rating IPOHE ([5]; Rate 0.2500 kg/ha) | ABUTH herbicidal rating ([6]; rate 0.0320 kg/ha) | ABUTH herbicidal rating ([6]; rate 0.0620 kg/ha) | also measured
C[C@@H]1C[C@H](C)OC(c2nsc3ccc(-n4c(=O)cc(C(F)(F)F)n(C)c4=O)cc23)O1 (stereo partly drawn) [Compound 50, 3-[3-[(4R,6S)-4,6-dimethyl-m-dioxan-2-yl]-1,2-benzisothiazol-5-yl]-1-methyl-6-(trifluoromethyl)uracil] | 9.0 | 9.0 | 5.0 | 5.0 | 8.0 | 9.0 | 3.0 | 6.5 | 8.5 | 7.5 | 9.0 | 8.0 | 0.0 | 7.5 | 8.0 | 8.0 | 7.5 | 9.0 | 9.0 | 9.0 | GALAP herbicidal rating (GALAP (Galium aparine); rate 0.0320 kg/ha): 3.0; GALAP herbicidal rating (GALAP (Galium aparine); rate 0.0620 kg/ha): 8.0; Preemergence herbicidal rating ZEAMX (ZEAMX (Corn, Field); Rate 0.0620 kg/ha): 9.0; Preemergence herbicidal rating ZEAMX (ZEAMX (Corn, Field); Rate 0.1250 kg/ha): 9.0; Preemergence herbicidal rating ZEAMX (ZEAMX (Corn, Field); Rate 0.2500 kg/ha): 9.0; herbicidal rating, SAGPY ([7]; rate 0.0080 kg/ha): 0.0; herbicidal rating, SAGPY ([7]; rate 0.0320 kg/ha): 0.0; herbicidal rating, SAGPY ([7]; rate 0.1250 kg/ha): 4.5
C[C@@H]1C[C@H](C)OC(c2nsc3ccc(-n4c(=O)cc(C(F)(F)F)n(C)c4=O)cc23)O1 (stereo partly drawn) [Compound 51, 3-[3-[(4R,6S)-4,6-dimethyl-m-dioxan-2-yl]-1,2-benzisothiazol-5-yl]-1-methyl-6-(trifluoromethyl)uracil] | 9.0 | 9.0 | 2.0 | 6.0 | 7.0 | 8.0 | 7.0 | 9.0 | 9.0 | 9.0 | 9.0 | 9.0 | 3.0 | 8.0 | 9.0 | 6.5 | 9.0 | 9.0 | 9.0 | 9.0 | GALAP herbicidal rating (GALAP (Galium aparine); rate 0.0320 kg/ha): 2.0; GALAP herbicidal rating (GALAP (Galium aparine); rate 0.0620 kg/ha): 5.0; Preemergence herbicidal rating ZEAMX (ZEAMX (Corn, Field); Rate 0.0620 kg/ha): 8.0; Preemergence herbicidal rating ZEAMX (ZEAMX (Corn, Field); Rate 0.1250 kg/ha): 8.5; Preemergence herbicidal rating ZEAMX (ZEAMX (Corn, Field); Rate 0.2500 kg/ha): 9.0; herbicidal rating, SAGPY ([7]; rate 0.0080 kg/ha): 0.0; herbicidal rating, SAGPY ([7]; rate 0.0320 kg/ha): 7.0; herbicidal rating, SAGPY ([7]; rate 0.1250 kg/ha): 9.0
Cn1c(C(F)(F)F)cc(=O)n(-c2ccc3snc(C4(C)OCCO4)c3c2)c1=O [Compound 54, 1-methyl-3-[3-(2-methyl-1,3-dioxolan-2-yl)-1,2-benzisothiazol-5-yl]-6-(trifluoromethyl)uracil] | 9.0 | 9.0 | 2.0 | 9.0 | 5.0 | 9.0 | 7.0 | 8.5 | 9.0 | 9.0 | 9.0 | 9.0 | 0.0 | 7.5 | 9.0 | 9.0 | 9.0 | 9.0 | 9.0 | 9.0 | AMBEL herbicidal rating ([1]; rate 0.1250 kg/ha): 9.0; CASOB herbicidal rating ([2]; rate 0.1250 kg/ha): 9.0; CHEAL herbicidal rating ([3]; rate 0.1250 kg/ha): 9.0; ABUTH herbicidal rating ([6]; rate 0.1250 kg/ha): 9.0; GALAP herbicidal rating (GALAP (Galium aparine); rate 0.0320 kg/ha): 5.0; GALAP herbicidal rating (GALAP (Galium aparine); rate 0.0620 kg/ha): 9.0; GALAP herbicidal rating (GALAP (Galium aparine); rate 0.1250 kg/ha): 9.0; Preemergence herbicidal rating ZEAMX (ZEAMX (Corn, Field); Rate 0.0620 kg/ha): 8.0; Preemergence herbicidal rating ZEAMX (ZEAMX (Corn, Field); Rate 0.1250 kg/ha): 8.5; Preemergence herbicidal rating ZEAMX (ZEAMX (Corn, Field); Rate 0.2500 kg/ha): 9.0; herbicidal rating, SAGPY ([7]; rate 0.0080 kg/ha): 0.0; herbicidal rating, SAGPY ([7]; rate 0.0320 kg/ha): 7.0; herbicidal rating, SAGPY ([7]; rate 0.1250 kg/ha): 9.0
CC1CC(C)(C)OC(c2nsc3ccc(-n4c(=O)cc(C(F)(F)F)n(C)c4=O)cc23)O1 (stereo not drawn) [Compound 55, 1-methyl-6-(trifluoromethyl)-3-[3-(4,4,6-trimethyl-m-dioxan-2-yl)-1,2-benzisothiazol-5-yl]uracil] | 9.0 | 9.0 | 2.0 | 1.0 | 5.0 | 4.0 | 3.0 | 4.5 | 9.0 | 6.5 | 8.0 | 9.0 | 0.0 | 6.0 | 9.0 | 7.5 | 7.5 | 8.0 | 9.0 | 9.0 | GALAP herbicidal rating (GALAP (Galium aparine); rate 0.0320 kg/ha): 2.0; GALAP herbicidal rating (GALAP (Galium aparine); rate 0.0620 kg/ha): 2.0; Preemergence herbicidal rating ZEAMX (ZEAMX (Corn, Field); Rate 0.0620 kg/ha): 8.0; Preemergence herbicidal rating ZEAMX (ZEAMX (Corn, Field); Rate 0.1250 kg/ha): 9.0; Preemergence herbicidal rating ZEAMX (ZEAMX (Corn, Field); Rate 0.2500 kg/ha): 8.0; herbicidal rating, SAGPY ([7]; rate 0.0080 kg/ha): 0.0; herbicidal rating, SAGPY ([7]; rate 0.0320 kg/ha): 0.0; herbicidal rating, SAGPY ([7]; rate 0.1250 kg/ha): 7.0
